Counter-ions that a name gives are not always drawn.
What was measured:
murine TRPC6 ion channel = target: T1, murine TRPC6 ion channel (Mus musculus, UniProt Q61143); conditions: Inoue et al, Circ. Res. (2001) 88: 325-332; cited from earlier work
T1 sequence (Q61143 1-930): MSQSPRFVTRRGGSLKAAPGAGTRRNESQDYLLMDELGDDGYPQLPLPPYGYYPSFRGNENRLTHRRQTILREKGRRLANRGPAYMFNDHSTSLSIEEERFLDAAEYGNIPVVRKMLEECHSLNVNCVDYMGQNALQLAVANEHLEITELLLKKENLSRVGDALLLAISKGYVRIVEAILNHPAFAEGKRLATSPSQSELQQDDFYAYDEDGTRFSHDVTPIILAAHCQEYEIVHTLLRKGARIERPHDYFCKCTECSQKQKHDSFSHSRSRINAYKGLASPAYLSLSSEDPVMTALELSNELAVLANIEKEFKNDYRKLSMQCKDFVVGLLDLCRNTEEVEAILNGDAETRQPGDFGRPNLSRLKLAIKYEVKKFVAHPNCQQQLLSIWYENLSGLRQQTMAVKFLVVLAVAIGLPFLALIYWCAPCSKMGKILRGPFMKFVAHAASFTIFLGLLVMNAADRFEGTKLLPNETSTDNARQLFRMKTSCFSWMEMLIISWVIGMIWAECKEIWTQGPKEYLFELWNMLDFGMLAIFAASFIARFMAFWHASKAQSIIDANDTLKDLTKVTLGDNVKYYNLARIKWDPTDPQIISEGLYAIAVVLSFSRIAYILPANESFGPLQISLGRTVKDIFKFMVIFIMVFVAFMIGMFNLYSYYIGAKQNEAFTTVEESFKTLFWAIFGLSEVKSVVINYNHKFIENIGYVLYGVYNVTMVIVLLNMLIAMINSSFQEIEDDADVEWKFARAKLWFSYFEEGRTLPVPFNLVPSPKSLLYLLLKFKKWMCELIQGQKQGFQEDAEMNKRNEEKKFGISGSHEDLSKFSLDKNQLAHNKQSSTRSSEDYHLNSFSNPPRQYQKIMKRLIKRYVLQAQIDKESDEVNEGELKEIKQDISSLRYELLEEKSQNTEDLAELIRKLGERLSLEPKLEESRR

human TRPC6 ion channel = target: T2, human TRPC6 ion channel (Homo sapiens, UniProt Q9Y210); assay: FLIPR membrane potential assay, carbachol-stimulated TRPC6-expressing cells (TRPC6 clone 14); assay type: cell-based; conditions: for Mean fluorescence response calculated as (Max − Min)/Min: 10 min pre-treatment, n=10 wells, control 1.219
T2 construct: expressed in transfected cells; host or cells: TRPC6 clone 14 cells
T2 sequence (Q9Y210 1-931): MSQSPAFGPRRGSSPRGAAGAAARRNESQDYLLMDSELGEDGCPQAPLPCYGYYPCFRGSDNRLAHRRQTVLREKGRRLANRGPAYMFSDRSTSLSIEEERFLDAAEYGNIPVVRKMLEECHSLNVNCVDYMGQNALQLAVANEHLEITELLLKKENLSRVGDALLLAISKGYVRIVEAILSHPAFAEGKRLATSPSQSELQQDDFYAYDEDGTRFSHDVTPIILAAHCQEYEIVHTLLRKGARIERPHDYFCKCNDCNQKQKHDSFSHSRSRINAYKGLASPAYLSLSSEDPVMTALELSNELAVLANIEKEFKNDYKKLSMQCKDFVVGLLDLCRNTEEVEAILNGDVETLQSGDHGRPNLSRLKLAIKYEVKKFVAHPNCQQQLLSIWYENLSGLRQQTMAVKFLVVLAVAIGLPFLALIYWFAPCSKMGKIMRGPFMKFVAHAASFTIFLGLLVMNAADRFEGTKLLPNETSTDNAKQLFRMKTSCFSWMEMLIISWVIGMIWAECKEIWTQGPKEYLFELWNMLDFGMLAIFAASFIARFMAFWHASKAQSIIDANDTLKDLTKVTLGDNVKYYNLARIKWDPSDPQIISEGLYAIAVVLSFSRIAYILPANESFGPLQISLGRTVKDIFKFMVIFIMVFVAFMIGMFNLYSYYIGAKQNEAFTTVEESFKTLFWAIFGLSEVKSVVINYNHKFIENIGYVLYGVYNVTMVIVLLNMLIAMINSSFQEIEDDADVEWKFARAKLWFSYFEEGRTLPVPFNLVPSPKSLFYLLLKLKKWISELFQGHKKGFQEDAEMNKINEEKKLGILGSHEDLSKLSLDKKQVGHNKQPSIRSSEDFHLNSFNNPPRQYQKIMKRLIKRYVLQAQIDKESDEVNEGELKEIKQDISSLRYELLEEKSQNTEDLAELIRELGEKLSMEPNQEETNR
Experimental: In a suitable test for any inhibition of the TRPC6 channel, cells that express an endogenous G protein-coupled calcium mobilising receptor e.g. muscarinic acetylcholine receptor that can activate TRPC6 channels are used and a receptor agonist e.g. muscarinic acetylcholine receptor agonist is added to stimulate the TRPC6 channels. The cells are treated with the candidate substance prior to addition of the receptor agonist. That should produce an increase in fluorescence, but the magnitude of the increase will be reduced if the candidate substance inhibits the TRPC6 channels. Any change in fluorescence can be measured using suitable equipment, for example a fluorescence imaging plate reader.
An assay for screening candidate or test compounds is performed using cells stably-transfected with TRPC6 and expressing a functional TRPC6 channel e.g. the mammalian cell line HEK 293 which expresses an endogenous muscarinic acetylcholine receptor which can activate TRPC6 channels. […] The TRPC6-expressing cells are seeded in 96-well black-walled flat-bottomed microplates in a plating volume of 100 μl and grown to confluence for the assay. To prepare the cells for the assay, the cell culture medium is removed and 100 μl of loading buffer is added to each well. The loading buffer consists of FLIPR® membrane potential dye diluted to the required assay concentration in a buffer composed of 140 mM-NaCl, 0.15 mM CaCl2, 3.3 mM KH2PO4, 1.2 mM MgCl2, 10 mM D-glucose and 20 m M HEPES, at pH7.4 and containing 0.03 mM BAPTA-AM. The plates are incubated at 37° C. for 20 minutes prior to commencing the assay. For the detection of inhibitors of TRPC6, test agents are added to each well either before or after stimulation with the muscarinic acetylcholine receptor agonist carbachol, which activates the TRPC6 channel. The expected effect of an inhibitor would be to reduce the carbachol-stimulated increase in fluorescence. Activators of TRPC6 may be detected by substituting carbachol for a test agent, where activators will stimulate an increase in fluorescence.
TRPC6 clone 14 cells pre-treated with 1-[b-[3-(4-methoxyphenyl)propoxy]-4-methoxyphenethyl]-1H-imidazole.HCl for 10 minutes are stimulated with carbachol (10 μM) in accordance with the assay described in Example 2. The fluorescence is measured prior to carbachol addition (minimum response, i.e. Min.) and when the carbachol-stimulated increase in fluorescence has reached a maximum (maximum response, i.e. Max.). It can be seen in table 1 below that the reduced fluorescence responses are observed in compound treated-cells compared to the control response in the absence of compound.
The data is calculated as a (Max−Min)/Min response. Each concentration of 1-[b-[3-(4-methoxyphenyl)propoxy]-4-methoxyphenethyl]-1H-imidazole.HCl is the mean±SEM (standard error of the mean) of n=10 wells.

[1] = tested on: receptor-mediated calcium entry (RMCE); conditions: Merritt et al, Biochem. J. (1990) 271: 515-522; cited from earlier work

Mean fluorescence response calculated as (Max − Min)/Min (human TRPC6 ion channel; compound concentration 0.1 μM, carbachol 10 μM): 1.172 | Mean fluorescence response calculated as (Max − Min)/Min (human TRPC6 ion channel; compound concentration 1.0 μM, carbachol 10 μM): 0.977 | Mean fluorescence response calculated as (Max − Min)/Min (human TRPC6 ion channel; compound concentration 03 μM (so in the source), carbachol 10 μM): 1.128 | Mean fluorescence response calculated as (Max − Min)/Min (human TRPC6 ion channel; compound concentration 3.0 μM, carbachol 10 μM): 0.699 | Mean fluorescence response calculated as (Max − Min)/Min (human TRPC6 ion channel; compound concentration 10.0 μM, carbachol 10 μM): 0.278 | Mean fluorescence response calculated as (Max − Min)/Min (human TRPC6 ion channel; compound concentration 30.0 μM, carbachol 10 μM): 0.122 | IC50 (human TRPC6 ion channel; mean±S.E.M. from n=4 experiments, carbachol 10 μM, read-out: calculated mean IC50 value): 4.9 ± 0.8 µM | activity of the human TRPC6 ion channel (human TRPC6 ion channel; result in words): inhibits
Compound: COc1ccc(CCCOC(Cn2ccnc2)c2ccc(OC)cc2)cc1 (stereo not shown) [1-[b-[3-(4-methoxyphenyl)propoxy]-4-methoxyphenethyl]-1H-imidazole.HCl]
murine TRPC6 ion channel block (murine TRPC6 ion channel): block | receptor-mediated calcium entry (RMCE) [1]: inhibit
